The record followed here is PubChem BioAssay AID489020 (Sanford-Burnham Center for Chemical Genomics, 2010).

The structures appear in SMILES notation. The source made the active and inactive calls.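 Rule for the calls: active = mean IC50, the dose halving TNF-driven NF-kB light signal, at or below a set limit; inactive = the rest.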

The experiment deals with HEK-293T NF-kB-Luc, TNFa-induced, luminescence, 14 h. Put plainly: TNFa-driven NF-kB luciferase inhibition, HEK-293T – cell-based, HEK-293T NF-kB-Luc, luminescence, hits from both screens, counter-screen for BCR/TCR NF-kB inhibitor project, dose response (AID 489020;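 note: TNF-alpha stimulus at 0.1 ng/mL added with the seeded cells; selectivity counterscreen for hits from B- and T-cell receptor NF-kB screens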). (The purpose of a counterscreen is to sort out artefacts and off-target activity.)

One may read the IC50 as the concentration that inhibits the measured activity by half.

For `COc1cc([N+](=O)[O-])cc(/C=N/NC(=O)c2ccc(NC(=O)c3ccc(C)cc3)cc2)c1O`, the IC50 was 22500 nM (inactive).

Regarding `COc1ccc(C(=O)Nc2nc3ccccc3s2)c(OC)c1`, the half-inhibitory concentration (IC50) is 220 nM.

For `COc1ccc(NS(=O)(=O)c2cccc(NC(=O)c3ccc(Cl)nc3)c2)cc1`, the half-maximal inhibitory concentration (IC50) is 310 nM.

For the compound `Cc1ccc(C(=O)CN2C(=O)c3ccccc3S2(=O)=O)cc1`, the half-maximal inhibitory concentration (IC50) is 1890 nM.

`COc1ccc(OC)c(C2C3=C(COC3=O)Nc3cc4c(cc32)OCO4)c1` (configuration not stated): the IC50 was > 80000 nM (inactive).

For `CCOc1ccc(-n2c(-c3ccc(OC)cc3)c[n+]3c2CCCCC3)cc1`, the concentration for half-maximal inhibition (IC50) is 1060 nM.

As to `CCCCCNC(=O)c1ccc2c(=O)n(CC3CCCO3)c(=O)[nH]c2c1` (configuration not stated), the IC50 was > 80000 nM (inactive).

For `CCc1ccc(-c2nc(CS(=O)CC(=O)NCc3ccco3)c(C)o2)cc1` (configuration not stated), the IC50 was 57900 nM (inactive).

As for `COc1cc2c(cc1OC)[C@@H]1C(=O)c3ccc4c(c3O[C@@H]1CO2)C[C@H](C(C)C)O4`, the IC50 is under 160 nM.

On to `COc1cc(NC(C)CCCN)c2ncccc2c1` (configuration not stated), for which the IC50 is 22900 nM (inactive).

For `COc1ccc(CCNc2ncnc3sccc23)cc1OC`, the 50% inhibitory concentration (IC50) was under 160 nM.

In the case of `O=C(CCl)N1CCCC1c1ccc2c(c1)OCCO2` (configuration not stated), the half-maximal inhibitory concentration (IC50) is 9330 nM.

As to `Cc1ccc(NC(=O)COc2ccc(N(C)C(=O)C(C)(C)C)cc2)cc1S(=O)(=O)N1CCCCC1`, the IC50 was 1740 nM.

`C=CC(=O)Nc1ccc(Nc2nc(NC3CCC(N(C)C)CC3)nc3c2ncn3C(C)C)cc1` (configuration not stated): the IC50 is 410 nM.

Take `Cc1ccc2nc(NC(=O)CCCC(=O)O)sc2c1`: the 50% inhibitory concentration (IC50) is 3130 nM.

Regarding `CC(=O)O[C@H]1[C@H]2O[C@]23[C@@H]2CC[C@]4(O)C[C@@H](O)CC[C@]4(C)C2CC[C@]3(C)[C@H]1c1ccc(=O)oc1` (some centres not stated), the IC50 was under 160 nM.

As for `CCCCCCn1c2c(c(=N)c3c1CCC3)CCC2`, the IC50 was 950 nM.

In the case of `N#Cc1c(NC(=O)CSc2ncn[nH]2)sc2c1CCCC2`, the IC50 is 610 nM.

As for `CCCCCc1ccc(OCCCC[n+]2cccc(C)c2)c(CCCCC)c1`, the IC50 is 6070 nM.

`CC[n+]1c(C=C2C=C(C)OC(C)=C2)sc2ccccc21`: the IC50 is 1900 nM.

`Nc1nc(Cl)nc2c1ncn2C1CC(O)C(CO)O1` (configuration not stated): the IC50 was > 80000 nM (inactive).

Consider `COc1cc(NC(=O)COc2cc(O)c3c(c2)OC(C)(C)CC3=O)cc(OC)c1OC`, for which the IC50 is 380 nM.

Regarding `CC(C)c1ccc(-c2nnn(CCC(=O)O)n2)cc1`, the IC50 was 380 nM.

For the compound `Cc1ccc(-c2csc(NC(=O)C3CCN(S(=O)(=O)c4cccs4)CC3)n2)cc1`, the IC50 is 2140 nM.

Take `C[C@@H]1C[C@@H]2O[C@H]2/C=C\C=C\C(=O)Cc2c(Cl)c(O)cc(O)c2C(=O)O1`: the 50% inhibitory concentration (IC50) was 7670 nM.

As for `C=CCn1c(C)cc(C(=O)CN2C(=O)c3ccccc3S2(=O)=O)c1C`, the half-maximal inhibitory concentration (IC50) was 170 nM.

`c1ccc2sc(Sc3ncnc4sccc34)nc2c1`: the IC50 is 21400 nM (inactive).

For `O=C(CSc1nnnn1C1CC2CCC1C2)Nc1ccnc2ccccc12` (configuration not stated), the IC50 is under 160 nM.

Turning to `O=C(NCCNCCO)C1(C(F)(F)F)C/C(=C\CCO)CCCO1` (configuration not stated), the IC50 is > 80000 nM (inactive).

`O=C(NCCc1ccccc1)c1ccc2c(c1)OCCCO2`: the half-maximal inhibitory concentration (IC50) was 900 nM.

Regarding `COc1ccc(C(=O)CN2C(=O)c3ccccc3S2(=O)=O)cc1`, the half-maximal inhibitory concentration (IC50) is 790 nM.

Consider `CC(C)Cc1cc(C(C)(C)C)ccc1OC(=S)N(C)C`, for which the IC50 is > 80000 nM (inactive).

As to `Cc1cc(Cl)c(S(=O)(=O)N2CCCCCC2)cc1OCC(=O)NC1CCCCC1`, the IC50 was 240 nM.

On to `CN=c1scc(-c2ccccc2F)n1/N=C/c1ccc[nH]1`, for which the half-inhibitory concentration (IC50) was 1210 nM.

Regarding `COc1cccc2c1C(=O)c1c(O)c3c(c(O)c1C2=O)C[C@@](O)(C(=O)CO)C[C@@H]3O[C@H]1C[C@H](N)[C@H](O)[C@H](C)O1`, the IC50 was 26900 nM (inactive).

In the case of `C[C@@H]1O[C@@H](O[C@@H]2C=C3CC[C@@H]4C(CC[C@]5(C)[C@@H](c6ccc(=O)oc6)CC[C@]45O)[C@@]3(C)CC2)[C@H](O)[C@H](O)[C@H]1O` (some centres not stated), the IC50 is under 160 nM.

As for `C=C1C(=O)O[C@@H]2C[C@@H](C)[C@@H]3C=CC(=O)[C@@]3(C)[C@@H](OC(=O)CC(=O)O[C@H]3[C@@H]4C(=C)C(=O)O[C@@H]4C[C@@H](C)[C@@H]4C=CC(=O)[C@]43C)[C@H]12`, the IC50 was 1480 nM.

Consider `CCOC(=O)C1CCCN(S(=O)(=O)c2ccc(S(=O)(=O)N(CC)CC)cc2)C1` (configuration not stated), for which the IC50 is 560 nM.

`CC(C)(O)c1[nH]c2ccc(C#N)cc2c1C(C)(C)O`: the IC50 was 65800 nM (inactive).

Regarding `O=C(Nc1ccc(Cl)cc1)Nc1cccc(C(=O)O)c1`, the concentration for half-maximal inhibition (IC50) was 10600 nM.

As for `Cn1nc(C(C)(C)C)cc1C(=O)NCc1ccc(N2CCCC2=O)cc1`, the IC50 was 2010 nM.

For the compound `CCCCCn1c(=O)[nH]c2cc(C(=O)N3CCN(Cc4ccc5c(c4)OCO5)CC3)ccc2c1=O`, the half-maximal inhibitory concentration (IC50) is under 160 nM.

`O=C(CN1C(=O)c2ccccc2S1(=O)=O)c1ccc2c(c1)OCCCO2`: the IC50 is under 160 nM.

Regarding `O=C(/C=C/c1ccccc1)Nc1cccc(C(=O)O)c1`, the IC50 is 2590 nM.

In the case of `CCn1c(C)cc(C(=O)COC(=O)c2ccccc2[N+](=O)[O-])c1C`, the IC50 was under 160 nM.

Take `C=C1C(O)[C@@H]2O[C@]3(CC[C@H](/C=C/C(C)[C@@H]4CC(C)=CC5(O[C@H](C[C@@](C)(O)C(=O)O)CCC5O)O4)O3)CC[C@H]2O[C@@H]1C(O)CC(C)[C@H]1OC2(CCCCO2)CCC1C` (some centres not stated): the concentration for half-maximal inhibition (IC50) was 310 nM.

Regarding `CCCCCCCCCn1ccc(=N)cc1`, the IC50 is 510 nM.

Turning to `O=C1/C(=C/c2ccccc2)C[C@@]2(O)[C@H]3Cc4ccc(O)c5c4[C@@]2(CCN3CC2CC2)C1O5` (some centres not stated), the IC50 was 8710 nM.

Take `C#CC(=O)N(c1ccc(OC)cc1OC)C(C(=O)NC1CCCC1)c1cccs1` (configuration not stated): the IC50 is 4970 nM.

Regarding `COc1ccc(C[C@H]2NC[C@H](O)[C@H]2OC(C)=O)cc1`, the half-inhibitory concentration (IC50) is under 160 nM.

Turning to `CC(=O)OC(C)(C)/C=C/C(=O)[C@](C)(O)C1[C@H](O)C[C@@]2(C)C3CC=C4C(C[C@H](O)C(=O)C4(C)C)[C@]3(C)C(=O)C[C@]12C` (some centres not stated), the IC50 is 11300 nM.

Take `C#CC(=O)N(c1ccc(OC)c(OC)c1)C(C(=O)NC1CCCC1)c1cccs1` (configuration not stated): the IC50 is 4770 nM.

Consider `O=S(=O)(NCC1CCCO1)c1ccc(-c2ccc(S(=O)(=O)NCC3CCCO3)cc2)cc1` (configuration not stated), for which the concentration for half-maximal inhibition (IC50) was 320 nM.

As to `CCCCCCCCCCCCn1ccc(=N)cc1`, the IC50 was 2390 nM.

On to `COc1cccc(NC(=O)Nc2cccc(C(=O)O)c2)c1`, for which the concentration for half-maximal inhibition (IC50) is 5440 nM.

As for `Cc1nn(-c2ccccc2)c(C)c1/C=N/NC(=O)c1cc(-c2cccs2)[nH]n1`, the IC50 is 3540 nM.

As for `CCCCCCn1ccc(=N)cc1`, the IC50 is 13100 nM.

`CC1CCN(c2nc3ccc(C(=O)O)cc3s2)CC1`: the IC50 was 4090 nM.

`CC(=O)c1cn(Cc2ccccc2C#N)c2ccccc12`: the IC50 was 880 nM.

`O=C(NCCc1ccccc1F)c1ccc2c(c1)OCCO2`: the IC50 was 1420 nM.

For `Cc1cc(CSc2ccccc2)ccc1NC(=O)c1ccc(CN2CCOCC2)cc1`, the 50% inhibitory concentration (IC50) was 260 nM.

Turning to `CN(C)c1ccc(-c2n(C)c3ccccc3[n+]2C)cc1`, the 50% inhibitory concentration (IC50) was 6580 nM.

`Nc1nc(F)nc2c1ncn2[C@@H]1O[C@H](CO)[C@@H](O)[C@H]1O`: the concentration for half-maximal inhibition (IC50) was 7240 nM.

Consider `OCCCNc1cc(-c2ccnc(Nc3cccc(Cl)c3)n2)ccn1`, for which the IC50 is 380 nM.

`Cn1nccc1C(=O)NC1CCCc2c1cnn2-c1ccc(F)cc1F` (configuration not stated): the IC50 is under 160 nM.

With `OCCCNc1nccc(-c2cc(Nc3cccc(Cl)c3)ncn2)n1`, the IC50 is 550 nM.

Take `N#Cc1c(NC(=O)CSc2ncn[nH]2)sc2c1CCCCC2`: the IC50 is 180 nM.

Consider `CN(C(=O)OC(C)(C)C)c1ccc(-c2nc3ccccc3s2)cc1`, for which the IC50 was under 160 nM.

In the case of `O=C(CCl)N=c1sccn1Cc1ccc(Cl)cc1Cl`, the IC50 is 21000 nM (inactive).

For `Cc1ccnc(NC(=O)CCCOc2cc(=O)n(C)c3ccccc23)c1`, the IC50 is 5930 nM.

On to `Nc1nc(Cl)nc2c1ncn2[C@H]1C[C@H](O)[C@@H](CO)O1`, for which the IC50 was 18400 nM.

Consider `CCCCCCCCCCOC(=O)Cn1c(COc2ccccc2OC)[n+](C)c2ccccc21`, for which the IC50 was 3080 nM.

In the case of `Cc1cc(NNC(=O)Nc2cccc(Cl)c2)nc2c1c(C)nn2C`, the half-maximal inhibitory concentration (IC50) is 470 nM.

Take `C[n+]1c(-c2ccccc2)c2cc(N)ccc2c2ccc(N)cc21`: the IC50 is 8250 nM.

As to `COc1ccc(-c2cc3nc(C)n(N)c(=O)c3s2)cc1`, the half-inhibitory concentration (IC50) is 870 nM.

On to `C[C@@H]1O[C@@H](O[C@@H]2C=C3CCC4C(CC[C@]5(C)[C@@H](c6ccc(=O)oc6)CC[C@]45O)[C@@]3(C)CC2)[C@H](O)[C@H](O)[C@H]1O` (some centres not stated), for which the IC50 was under 160 nM.

Consider `COc1ccc(-c2c[n+]3c(n2-c2ccc(C)cc2)CCCCC3)cc1`, for which the concentration for half-maximal inhibition (IC50) was 1620 nM.

Take `CC1CCc2c(sc(NC(=O)CSc3ncn[nH]3)c2C#N)C1` (configuration not stated): the concentration for half-maximal inhibition (IC50) was 610 nM.

With `O=C(CCl)N=c1sccn1Cc1ccccc1Cl`, the IC50 was 10100 nM.

As for `N=c1c2c(-c3ccccc3)c(-c3ccccc3)n(Cc3ccccc3)c2ncn1CCCn1ccnc1`, the concentration for half-maximal inhibition (IC50) is 6970 nM.

As to `O=C(O)CSCC(=O)Nc1ccc(C2CCCCC2)cc1`, the IC50 is 470 nM.

As for `N=c1c2c(n(Cc3ccc(Br)cc3)c3c1CCC3)CCCC2`, the IC50 is 4300 nM.
